Counter-ions that a name gives are not always drawn. Like-named read-outs stand apart in the source and are kept apart here.
Key:
[1] = tested on: human thrombocytes; experiment: Inhibition of arachidonic acid induced aggregation of human thrombocytes in-vitro; format: cell-based; settings: for Relative activity against the aggregation of human thrombocytes induced by arachidonic acid: relative to 5,6-dihydroprostacyclin = 1.0
Source text: Relative activity against the aggregation
of human thrombocytes induced by arachidonic acid
in-vitro (the IC50, i.e., the concentration causing
under the experimental conditions in 50% of the cases
inhibition of the platelet aggregation for 5,6-di-

[2] = tested on: ADP induced fall in platelet count; experiment: ADP induced fall in platelet count in-vivo in narcotized rats; set-up: species or system rat; settings: for Relative activity on the ADP induced fall in platelet count in-vivo: relative to 5,6-dihydroprostacyclin = 1.0; for Relative activity on the ADP induced fall in platelet count in-vivo / Maximum effect % Aggregation inhibition: narcotized rats; for Effect in relation to maximum effect, 10 min. after administration (aggregation inhibition) / Effect in relation to maximum effect, 30 min. after administration (aggregation inhibition): maximum effect = 100%
Method: (§1) Surprising for the compounds according to the invention is the relation of their blood platelet aggregation inhibiting effect to their blood pressure lowering activity.
Relative activity on the ADP induced fall
in platelet count in-vivo in narcotized rats (urethane
narcosis; intravenous administration of the test
compounds; the ED50 for 5,6-dihydroprostacyclin under
these experimental conditions is 0.0114 mg/kg):
Duration of the platelet aggregation inhibiting
effect in-vivo (measured with the model of ADP induced
fall in platelet count in narcotized rats on intra-
venous administration of the test compounds)

[3] = tested on: blood pressure; experiment: Blood pressure lowering in conscious, spontaneous hypertensive rats; format: in vivo, rat; settings: for Relative blood pressure lowering activity: relative to 5,6-dihydroprostacyclin = 1.0; for Effect in relation to maximum effect, 10 min. after administration (blood pressure lowering) / Effect in relation to maximum effect, 30 min. after administration (blood pressure lowering): maximum effect = 100%
Source text: as §1
Relative blood pressure lowering activity in
conscious, spontaneous hypertensive rats (measurement
via in-dwelling catheter; intravenous administration
of the test compounds; the ED20 for 5,6-dihydroprosta-
cyclin under these experimental conditions is 0.005
Duration of the blood pressure lowering effect
in conscious, spontaneous hypertensive rats (intra-

[4] = tested on: platelet aggregation versus blood pressure; experiment: Index of selectivity: platelet aggregation inhibition versus blood pressure lowering (from Tables 1b and 1c); format: in vivo, rat; settings: for Index of selectivity: in comparison to 5,6-dihydroprostacyclin, calculated from Tables 1b and 1c
Source text: as §1
in comparison to 5,6-dihydroprostacyclin (calculated

[5] = tested on: isolated rat uterus; experiment: Contraction inducing activity on isolated rat uterus; settings: Prostaglandin F2α = 100%
Source text: (§2) Relative contraction inducing activities
(a) tests on isolated rat uterus

[6] = tested on: isolated rat colon; experiment: Contraction inducing activity on isolated rat colon; settings: Prostaglandin F2α = 100%
Source text: as §2
(b) tests on isolated rat colon

[7] = Chemical stability; format: physicochemical
[8] = tested on: smooth muscle of the intestine and uterus; settings: cited from earlier work; for Smooth muscle contraction: intestine and uterus
[9] = tested on: ADP induced fall in platelet count; settings: background statement; also blood pressure lowering; cited from earlier work
[10] = tested on: platelet aggregation versus blood pressure; settings: background; cited from earlier work
[11] = background; cited from earlier work
[12] = conscious spontaneous hypertensive rats, intravenous

## CCCCC[C@](C)(O)/C=C/[C@@H]1[C@H]2C/C(=C\c3cccc(C(=O)O)c3)O[C@H]2C[C@H]1O [1e)ii), Sodium salt of [(5E, 13E, 9α, 11α, 15S)-2,3,4-trinor-1,5-inter-m-phenylene-6,9-epoxy-11,15-dihydroxy-15-methyl]-prosta-5,13-dienoic acid]
[1]; in-vitro
  Relative activity against the aggregation of human thrombocytes induced by arachidonic acid: 0.25
[2]; intravenous
  Relative activity on the ADP induced fall in platelet count in-vivo: 0.97
[3]; [12]
  Relative blood pressure lowering activity: 0.014
[4]
  Index of selectivity: 69.3

## CCCCCC(O)C=CC1C(O)CC2OC(CCCCC(=O)O)CC21 (stereo not shown) [5,6-Dihydroprostacyclin, 5,6-dihydroprostacyclin, reference compound]
[1]; human thrombocytes, induced by arachidonic acid, in-vitro, read-out: IC50, inhibition of platelet aggregation
  IC50: 0.18 µM
[1]; in-vitro
  Relative activity against the aggregation of human thrombocytes induced by arachidonic acid: 1.0
[2]; 0.1 mg/kg intravenous
  Maximum effect % Aggregation inhibition: 62.4%
  Effect in relation to maximum effect, 10 min. after administration (aggregation inhibition): 33.8%
  Effect in relation to maximum effect, 30 min. after administration (aggregation inhibition): 0%
[2]; also blood pressure lowering
  Duration of aggregation inhibiting and blood pressure lowering activities: only for a short time
[2]; narcotized rats (urethane), intravenous
  ED50, ADP induced fall in platelet count: 11.4 µg/kg
[2]; intravenous
  Relative activity on the ADP induced fall in platelet count in-vivo: 1.0
[3]; 0.0215 mg/kg intravenous
  Maximum effect % Blood pressure lowering: 28%
  Effect in relation to maximum effect, 10 min. after administration (blood pressure lowering): 7.1%
  Effect in relation to maximum effect, 30 min. after administration (blood pressure lowering): 0%
[3]; conscious spontaneous hypertensive rats, intravenous, in-dwelling catheter
  ED20, blood pressure lowering: 5 µg/kg
[3]; [12]
  Relative blood pressure lowering activity: 1.0
[4]
  Index of selectivity: 1.0
[4]; rat, in vivo
  Relation of platelet aggregation inhibiting to blood pressure lowering dosage: produces both these effects at the same dosage range
[5]
  Relative contraction inducing activity: 26.1%
[6]
  Relative contraction inducing activity: 23.8%
[7]
  Chemical stability: chemically stable

## CCCCC[C@](C)(O)/C=C/[C@@H]1[C@H]2C/C(=C/c3cccc(C(=O)O)c3)O[C@H]2C[C@H]1O [Example 1e)i), Sodium salt of [(5Z, 13E, 9α, 11α, 15S)-2,3,4-trinor-1,5-inter-m-phenylene-6,9-epoxy-11,15-dihydroxy-15-methyl]-prosta-5,13-dienoic acid]
[1]; in-vitro
  Relative activity against the aggregation of human thrombocytes induced by arachidonic acid: 0.86
[2]; 1.0 mg/kg intravenous
  Maximum effect % Aggregation inhibition: 72.7%
  Effect in relation to maximum effect, 10 min. after administration (aggregation inhibition): 69.3%
  Effect in relation to maximum effect, 30 min. after administration (aggregation inhibition): 41.3%
[2]; intravenous
  Relative activity on the ADP induced fall in platelet count in-vivo: 1.3
[3]; [12]
  Relative blood pressure lowering activity: 0.1
[4]
  Index of selectivity: 13.0
[5]
  Relative contraction inducing activity: 0.58%
[6]
  Relative contraction inducing activity: 0.002%

## CCCCC[C@H](O)/C=C/[C@@H]1[C@H]2C/C(=C\c3cccc(C(=O)O)c3)O[C@H]2C[C@H]1O [Example 2a, Sodium salt of [(5E, 13E, 9α, 11α, 15S)-2,3,4-trinor-1,5-inter-m-phenylene-6,9-epoxy-11,15-dihydroxy]-prosta-5,13-dienoic acid]
[1]; in-vitro
  Relative activity against the aggregation of human thrombocytes induced by arachidonic acid: 1.2

## CCCCC[C@H](O)/C=C/[C@@H]1[C@H]2C/C(=C/c3cccc(C(=O)O)c3)O[C@H]2C[C@H]1O [Example 2b, Sodium salt of [(5Z, 13E, 9α, 11α,15S)-2,3,4-trinor-1,5-inter-m-phenylene-6,9-epoxy-11,15-dihydroxy]prosta-5,13-dienoic acid]
[1]; in-vitro
  Relative activity against the aggregation of human thrombocytes induced by arachidonic acid: 1.2

## O=C(O)c1cccc(/C=C2/C[C@@H]3[C@@H](/C=C/[C@@H](O)C4CCCCC4)[C@H](O)C[C@@H]3O2)c1 [Example 3b, Sodium salt of [(5Z, 13E, 9α, 11α, 15S)-2,3,4-trinor-1,5-inter-m-phenylene-6,9-epoxy-11,15-dihydroxy-15-cyclohexyl-16,17,18,19,20-pentanor]-prosta-5,13-dienoic acid]
[1]; in-vitro (Table 1a)
  Activity compared with 5,6-dihydroprostacyclin, in-vitro: several times more active than 5,6-dihydroprostacyclin
[1]; in-vitro
  Relative activity against the aggregation of human thrombocytes induced by arachidonic acid: 18.0
[2]; 0.1 mg/kg intravenous
  Maximum effect % Aggregation inhibition: 72.5%
  Effect in relation to maximum effect, 10 min. after administration (aggregation inhibition): 62.6%
  Effect in relation to maximum effect, 30 min. after administration (aggregation inhibition): 66.3%
[2]; in-vivo (Table 1b)
  Activity compared with 5,6-dihydroprostacyclin, in-vivo: several times more active than 5,6-dihydroprostacyclin
[2]; intravenous
  Relative activity on the ADP induced fall in platelet count in-vivo: 5.0
[3]; 0.1 mg/kg intravenous
  Maximum effect % Blood pressure lowering: 23%
  Effect in relation to maximum effect, 10 min. after administration (blood pressure lowering): 87.0%
  Effect in relation to maximum effect, 30 min. after administration (blood pressure lowering): 39.1%
[3]; [12]
  Relative blood pressure lowering activity: 0.25
[4]
  Index of selectivity: 20.0

## CCCCC(CC)[C@H](O)/C=C/[C@@H]1[C@H]2C/C(=C/c3cccc(C(=O)O)c3)O[C@H]2C[C@H]1O (stereo partly drawn) [Example 4b, Sodium salt of [(5Z, 13E, 9α, 11α, 15S, 16RS)-2,3,4-trinor-1,5-inter-m-phenylene-6,9-epoxy-11,15-dihydroxy-16-ethyl]-prosta-5,13-dienoic acid]
[1]; in-vitro
  Relative activity against the aggregation of human thrombocytes induced by arachidonic acid: 0.31
[2]; 1.0 mg/kg intravenous
  Maximum effect % Aggregation inhibition: 66.8%
  Effect in relation to maximum effect, 10 min. after administration (aggregation inhibition): 45.4%
  Effect in relation to maximum effect, 30 min. after administration (aggregation inhibition): 24.5%
[2]; intravenous
  Relative activity on the ADP induced fall in platelet count in-vivo: 0.2
[3]; 1.0 mg/kg intravenous
  Maximum effect % Blood pressure lowering: 22%
  Effect in relation to maximum effect, 10 min. after administration (blood pressure lowering): 90.9%
  Effect in relation to maximum effect, 30 min. after administration (blood pressure lowering): 68.2%
[3]; [12]
  Relative blood pressure lowering activity: 0.012
[4]
  Index of selectivity: 16.7

## CCCCC[C@H](O)/C=C/[C@H]1[C@H](O)CC(=O)[C@@H]1C/C=C\CCCC(=O)O [PGE2]
[8]; administered in-vivo
  Side effects in-vivo: may induce diarrhea and abortion
[8]
  Smooth muscle contraction: cause contraction of the smooth muscle of the intestine and uterus

## CCCCC[C@H](O)/C=C/[C@@H]1[C@H]2C/C(=C/CCCC(=O)O)O[C@H]2C[C@H]1O [Prostacyclin, prostacyclin]
[9]
  Duration of aggregation inhibiting and blood pressure lowering activities: only for a short time
[10]
  Relation of platelet aggregation inhibiting to blood pressure lowering dosage: exhibited at generally the same dosage level
[11]
  Stability: not as stable as would be desirable

## CCCCC[C@H](O)/C=C/[C@@H]1[C@@H](C/C=C\CCCC(=O)O)[C@@H](O)C[C@H]1O [Prostaglandin F2α]
[5]
  Relative contraction inducing activity: 100%
[6]
  Relative contraction inducing activity: 100%
[8]
  Side effects in-vivo: may induce diarrhea and abortion
  Smooth muscle contraction: cause contraction of the smooth muscle of the intestine and uterus

Reference: patent publication US4372971A, “Heterocyclic prostaglandin type compounds, medicaments containing them and processes for the preparation and use of these heterocyclic compounds and medicaments” (priority 1980, dated 1983)
